The source of these data is patent US4920121A.

Usually ED50 stands for the midpoint of the dose-response relation. The Ki is a dissociation constant, usually derived from enzyme kinetics or from competition with a known ligand.

The subject of data set [1] is male Charles River, CF-1 mice. Kind of data set: isolation-induced aggression test. The settings on record: for total fighting time (TFT): 60 minutes before testing, 3 minute test, vehicle controls 15.7 seconds.
Protocol: The isolation-induced aggression test was conducted with male mice in an adaptation of the method of DaVanzo et al., Psychopharmacology, (Berlin) 9 210 (1966) whereby male Charles River, CF-1 mice, 16-20 g in weight were individually housed for a period of three weeks and then trained to attack an intruder mouse which had been group housed (10/cage). […] The total fighting time (TFT) in seconds was recorded during a 3 minute test period upon introduction of the intruder mouse into the cage of the aggressive mouse.
In data set [2] the test system is male CD rats (Charles River). The settings on record: i.p., reported by Martin et al. 1988; cited from earlier work.
In data set [3] the test system is male, Charles River mice, CF-1. Kind of data set: rotorod motor coordination (RMC) test. The procedure: In order to differentiate between specific antiagressive effects and an inhibition of fighting due to debilitation, rotorod motor coordination (RMC) tests were conducted according to an adaptation of the method of Dunham et al., J. Am. Pharm. Assc. […] The amount of time spent on the rod (maximum of 60 seconds) was recorded and compared with the vehicle treated control animals. […] In comparison, the minimum effective dose (mg/kg i.p.) of buspirone in the isolation induced aggression study was 10.0 mg/kg and greater than 60.0 mg/kg in producing ataxia as evaluated by the rotorod motor coordination study.
In general terms: In the rotarod test animals must keep their balance on a rotating rod.

Data set [4] relates to male CD rats (Charles River). As to the kind of experiment: discrete trial conditioned avoidance responding (CAR) test. The format is in vivo. Particulars: Rattus norvegicus, ip, thirty minutes before the test, instant test procedure, read-out: ED50 (reduction in avoidance responding). The procedure: The conditioned avoidance responding (CAR) test was conducted in male CD rats (Charles River) maintained at approximately 400-450 g body weight. Rats trained previously were placed in Plexiglas® experimental chambers equipped with a response lever, house light and sonalert. The steel grid chamber floor is wired for presentation of an electric shock. Each trial consists of a fifteen second warning tone conditioned stimulus, continuing for an additional fifteen seconds accompanied by electric shock (unconditioned stimulus). The rat can terminate a trial at any point by depressing the response lever. A response during the initial fifteen second warning tone ends the trial before shock delivery and is considered an avoidance response. A response occurring during shock delivery is an escape response. […] The ED50 of the test compound is calculated from the percentage reduction in avoidance responding and represents that dose at which only half the responses are made.

The target in data set [5] is 5-HT1A receptors. The settings on record: Martin et al., European J. of Pharmacol. 156 223 (1988); cited from earlier work.
For data set [6], the target named is T1, post synaptic 5-HT1A receptor (Rattus norvegicus, UniProt P19327).
T1 sequence (P19327 1-422): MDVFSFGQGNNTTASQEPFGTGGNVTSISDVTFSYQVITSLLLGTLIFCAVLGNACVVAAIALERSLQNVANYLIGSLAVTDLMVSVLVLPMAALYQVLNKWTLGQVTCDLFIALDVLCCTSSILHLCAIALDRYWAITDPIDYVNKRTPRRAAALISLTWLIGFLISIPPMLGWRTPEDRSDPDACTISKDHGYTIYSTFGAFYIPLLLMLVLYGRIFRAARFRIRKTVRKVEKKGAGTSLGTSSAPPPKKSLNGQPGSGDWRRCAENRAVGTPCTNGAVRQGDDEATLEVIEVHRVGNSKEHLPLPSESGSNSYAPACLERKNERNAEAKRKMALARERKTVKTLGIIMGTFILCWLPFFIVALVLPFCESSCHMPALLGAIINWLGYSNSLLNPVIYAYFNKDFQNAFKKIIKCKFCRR
Particulars: for in vivo postsynaptic 5-HT1A activity profile in serotonin syndrome tests: rats, i.p.
Protocol: (§1) Serotonin syndrome tests were conducted according to the method of Smith et al., Pharmacol. Biochem. and Behav., 24 1513 (1986).
(§2) Male Sprague-Dawley CD rats (Charles River) weighing 200-300 g were housed 6/cage with food and water available ad libitum. Animals were allowed to acclimate to the animal colony for at least 1 week prior to testing. Rats were placed individually into plexiglas® observation cages with a layer of bedding covering the bottom. […] During the 15 minute pretreatment, subjects were scored for the presence of the 5-HT syndrome (agonist activity). After the 8-OH-DPAT injection, all subjects were scored for an additional 15 minutes to identify antagonist activity. Scoring the 5-HT syndrome consisted of rating the following behaviors: (1) forepaw treading, (2) head-weaving, (3) tremor, (4) hindlimb abduction, (5) flattened body posture, and (6 ) Straub tail on a 4-point ranked intensity scale with a maximum score of 18. Results were expressed as mean total score (+/-SEM) for induction of syndrome and for antagonism of syndrome.

Data set [7] deals with T1, post synaptic 5-HT1A receptor. Kind of data set: in vivo. Particulars: ip.
Protocol: as §1, §2

The structures appear in SMILES notation. Like-named read-outs stand apart in the source and are kept apart here.

For the compound `COc1ccccc1N1CCNCC1`, the “total fighting time (TFT)” value in data set [1] (0.5 mg/kg i.p.) was 5.1 s; in data set [1] (1.0 mg/kg i.p.), 0.7 s; in data set [1] (3.0 mg/kg i.p.) it was 0.1 s. In addition, in data set [2], the “ED50 (reduction in avoidance responding)” value is given as 5.6 mg/kg. Further, in data set [3] (intraperitoneally 60 minutes before rotorod), the “dosage at which mice became debilitated (rotorod)” value is listed as at least 30.0 mg/kg. Moreover, the “debilitating dose relative to dose that antagonized aggressive activity” value in data set [3] (rotorod vs isolation-induced aggression, mice i.p.) was “at least ten times the dose that antagonized aggressive activity”. In data set [4], the ED50 came out at 10.6 mg/kg. For the same compound, the Ki in data set [5] is 9.5 nM. Besides, the “antagonism of serotonin syndrome induced by 8-OH-DPAT” value in data set [6] (33 mg/kg i.p., 15 minutes prior to 5.6 mg/kg i.p. 8-OH-DPAT) is recorded as “antagonized the serotonin syndrome”. The “induction of 5-HT syndrome (agonist activity)” value in data set [6] (10 and 30 mg/kg i.p., scored during 15 minute pretreatment) is recorded as “displayed agonist activity”. In addition, the “in vivo postsynaptic 5-HT1A activity profile in serotonin syndrome tests” value in data set [6] is on record as “weak partial agonist activity”.
For the compound `O=C1CC2(CCCC2)CC(=O)N1CCCCN1CCN(c2ncccn2)CC1` [buspirone, reference compound], the minimal effective dose in data set [1] (Mus musculus, ip, 1 h, read-out: minimum effective dose in the isolation induced aggression study) stood at 10 mg/kg. Further, in data set [3] (mouse, in vivo, ip), the “minimum effective dose in producing ataxia (rotorod motor coordination)” value is recorded as “greater than 60.0 mg/kg”. Further, the results for the 50% effective dose (ED50) in data set [7] (read-out: agonist ED50) and in data set [7] (read-out: antagonist ED50) were 7 mg/kg and 4 mg/kg, respectively. Also, in data set [6], the “in vivo postsynaptic 5-HT1A activity profile in serotonin syndrome tests” value was “partial agonist profile”.
